Measurements taken from patent US5041567A, “Antibacterial monic acid derivatives” (Beecham Group plc, priority 1982, dated 1991).
Values after ≈ are worked out from the molar mass of the structure shown. Read-outs that look alike come from different tables or passages of the source.

Experiments:
M. suipneumoniae NB12 = test: MIC against mycoplasma in vitro; type: cell-based; conditions: Mesomycoplasma hyopneumoniae
M. suipneumoniae Str. 11 = test: MIC against mycoplasma in vitro; type: cell-based
[1] = tested on: M. suipneumoniae PW/C/210; test: MIC against mycoplasma in vitro; type: cell-based; conditions: Mesomycoplasma hyopneumoniae, 144 h
M. suipneumoniae UCD 1 = test: MIC against mycoplasma in vitro; type: cell-based
M. bovis NCTC 10131 = test: microbe, parasite or virus in culture; type: cell-based
[2] = tested on: M. bovigenitalium ATCC 14173; test: MIC against mycoplasma in vitro; type: cell-based
M. gallisepticum S6 = test: MIC against mycoplasma in vitro; type: cell-based
E. coli NCTC 10418 [3] = test: MIC against human bacteria in vitro; type: cell-based; conditions: E. coli NCTC 10418, agar with 5% chocolated horse blood, 18 hours, 37° C.
[4] = tested on: Ps. aeruginosa NCTC 10662; test: MIC against human bacteria in vitro; type: cell-based; conditions: Ps. aeruginosa NCTC 10662, 5% chocolated horse blood agar, 18 hours
[5] = tested on: Haemophilus influenzae Wy21; test: MIC against human bacteria in vitro; type: cell-based
[6] = tested on: Corynebacterium xerosis 9755; test: MIC against human bacteria in vitro; type: cell-based; conditions: Corynebacterium xerosis 9755, 5% chocolated horse blood agar, 18 hours
Strep. agalactiae 2788-B = test: MIC against human bacteria in vitro; type: cell-based; conditions: Strep. agalactiae 2788-B, 5% chocolated horse blood agar, 18 hours
E. coli NCTC 10418 [7] = test: MIC against veterinary bacteria in vitro
Procedure: (§1) The activity of the compounds of the Examples against various veterinarily important bacteria, was assayed in vitro using two-fold serial dilutions in Diagnostic Sensitivity Test Agar inoculated with 10^4 organisms.

S. dublin S7 = test: MIC against veterinary bacteria in vitro
Procedure: as §1

Bord. bronchiseptica B09 = test: MIC against veterinary bacteria in vitro
Procedure: as §1

Past. multocida PA1 = test: MIC against veterinary bacteria in vitro
Procedure: as §1

Past. haemolytica PA5 = test: MIC against veterinary bacteria in vitro
Procedure: as §1

[8] = tested on: Erysipelothrix rhusiopathiae NCTC 8163; test: MIC against veterinary bacteria in vitro
Procedure: as §1

[9] = tested on: Corynebacterium pyogenes CY1; test: MIC against veterinary bacteria in vitro
Procedure: as §1

Staph. aureus Oxford = test: MIC against veterinary bacteria in vitro
Procedure: as §1

Strep. dysgalactiae SPD1 = test: MIC against veterinary bacteria in vitro
Procedure: as §1

Strep. agalactiae SPA1 = test: MIC against veterinary bacteria in vitro
Procedure: as §1

B. subtilis ATCC 6633 = test: MIC against veterinary bacteria in vitro
Procedure: as §1

[10] = Mesomycoplasma hyopneumoniae, 144 h, M. suipneumoniae Str. 11, 6 days, 37° C., read-out: MIC
[11] = M. suipneumoniae PW/C/210, 6 days, 37° C., read-out: MIC
[12] = Mesomycoplasma hyopneumoniae, UCD1, 144 h
[13] = Mycoplasmoides gallisepticum, 144 h, M. gallisepticum S6, 6 days, 37° C., read-out: MIC
[14] = Escherichia coli, NCTC10418, read-out: MIC
[15] = Pseudomonas aeruginosa, NCTC10662, read-out: MIC
[16] = Haemophilus influenzae Wy21, 5% chocolated horse blood agar, 18 hours, read-out: MIC
[17] = Streptococcus agalactiae, read-out: MIC
[18] = Escherichia coli, NCTC10418, 18 h
[19] = Bordetella bronchiseptica, B09, 18 h
[20] = Pasteurella multocida, PA1, 18 h
[21] = Erysipelothrix rhusiopathiae, NCTC8163, 18 h
[22] = Streptococcus dysgalactiae, SPD1, 18 h
[23] = Streptococcus agalactiae, SPA1, 18 h
[24] = Bacillus subtilis, ATCC6633, 18 h

C/C(=C\c1ncc(-c2ccc(S(=O)(=O)N(C)C)cc2)o1)C[C@@H]1OC[C@H](C[C@@H]2O[C@H]2[C@@H](C)[C@H](C)O)[C@@H](O)[C@H]1O [Example 24, 5-p-Dimethylaminosulphonylphenyl-2-(1-normon-2-yl)oxazole A]
MIC (M. suipneumoniae NB12; 144 h, M. suipneumoniae NB12, Friis broth, 0.9% agarose, 6 days, 37° C., read-out: MIC): 0.1 µg/mL (≈ 0.182 µM) | MIC (M. suipneumoniae Str. 11; [10]): 0.1 µg/mL (≈ 0.182 µM) | MIC [1, 11]: 0.1 µg/mL (≈ 0.182 µM) | MIC (M. suipneumoniae UCD 1; [12]): 0.25 µg/mL (≈ 0.454 µM) | MIC (M. bovis NCTC 10131; NCTC10131, 144 h): 0.025 µg/mL (≈ 0.0454 µM) | MIC ([2]; 144 h): 0.1 µg/mL (≈ 0.182 µM) | MIC (M. gallisepticum S6; [13]): 0.5 µg/mL (≈ 0.908 µM) | MIC (E. coli NCTC 10418 [3]; [14]): > 64 µg/mL | MIC [4, 15]: > 64 µg/mL | MIC [5, 16]: 4 µg/mL (≈ 7.26 µM) | MIC ([6]; read-out: MIC): > 128 µg/mL | MIC (Strep. agalactiae 2788-B; [17]): 2 µg/mL (≈ 3.63 µM) | MIC (E. coli NCTC 10418 [7]; [18]): > 80 µg/mL | MIC (S. dublin S7; Salmonella enterica, S7, 18 h): > 80 µg/mL | MIC (Bord. bronchiseptica B09; [19]): 40 µg/mL (≈ 72.6 µM) | MIC (Past. multocida PA1; [20]): 5 µg/mL (≈ 9.08 µM) | MIC (Past. haemolytica PA5; Mannheimia haemolytica, PA5, 18 h): 40 µg/mL (≈ 72.6 µM) | MIC [8, 21]: 40 µg/mL (≈ 72.6 µM) | MIC ([9]; CY1, 18 h): 80 µg/mL (≈ 145 µM) | MIC (Staph. aureus Oxford; Staphylococcus aureus, 18 h): 1.25 µg/mL (≈ 2.27 µM) | MIC (Strep. dysgalactiae SPD1; [22]): 0.625 µg/mL (≈ 1.13 µM) | MIC (Strep. agalactiae SPA1; [23]): 1.25 µg/mL (≈ 2.27 µM) | MIC (B. subtilis ATCC 6633; [24]): 0.312 µg/mL (≈ 0.567 µM)

C/C(=C\c1ncc(-c2ccccc2[N+](=O)[O-])o1)C[C@@H]1OC[C@H](C[C@@H]2O[C@H]2[C@@H](C)[C@H](C)O)[C@@H](O)[C@H]1O [Example 26, 5-o-Nitrophenyl-2-(1-normon-2-yl)oxazole A]
MIC (M. suipneumoniae NB12; NB12, 144 h): 2.5 µg/mL (≈ 5.12 µM) | MIC (M. suipneumoniae Str. 11; Mesomycoplasma hyopneumoniae, STR.11, 144 h): 2.5 µg/mL (≈ 5.12 µM) | MIC [1]: 1 µg/mL (≈ 2.05 µM) | MIC (M. suipneumoniae UCD 1; [12]): 2.5 µg/mL (≈ 5.12 µM) | MIC (M. bovis NCTC 10131; NCTC10131, 144 h): 0.025 µg/mL (≈ 0.0512 µM) | MIC ([2]; 144 h): 0.25 µg/mL (≈ 0.512 µM) | MIC (M. gallisepticum S6; Mycoplasmoides gallisepticum, S6, 144 h): 2.5 µg/mL (≈ 5.12 µM) | MIC (E. coli NCTC 10418 [3]; [14]): > 128 µg/mL | MIC [4, 15]: > 128 µg/mL | MIC ([5]; Haemophilus influenzae, WY21, 18 h): 0.25 µg/mL (≈ 0.512 µM) | MIC ([6]; read-out: MIC): > 128 µg/mL | MIC (Strep. agalactiae 2788-B; [17]): 2 µg/mL (≈ 4.09 µM) | MIC (E. coli NCTC 10418 [7]; [18]): > 80 µg/mL | MIC (S. dublin S7; Salmonella enterica, S7, 18 h): > 80 µg/mL | MIC (Bord. bronchiseptica B09; [19]): 20 µg/mL (≈ 40.9 µM) | MIC (Past. multocida PA1; [20]): 10 µg/mL (≈ 20.5 µM) | MIC [8, 21]: > 80 µg/mL | MIC ([9]; CY1, 18 h): > 80 µg/mL | MIC (Staph. aureus Oxford; Staphylococcus aureus, 18 h): 2.5 µg/mL (≈ 5.12 µM) | MIC (Strep. dysgalactiae SPD1; [22]): 0.625 µg/mL (≈ 1.28 µM) | MIC (Strep. agalactiae SPA1; [23]): 2.5 µg/mL (≈ 5.12 µM) | MIC (B. subtilis ATCC 6633; [24]): 0.312 µg/mL (≈ 0.639 µM)

C/C(=C\c1ncc(Cc2ccccc2)o1)C[C@@H]1OC[C@H](C[C@@H]2O[C@H]2[C@@H](C)[C@H](C)O)[C@@H](O)[C@H]1O [Example 27, 5-Benzyl-2-(1-normon-2-yl)oxazole A]
MIC (M. suipneumoniae NB12; NB12, 144 h): 5 µg/mL (≈ 10.9 µM) | MIC (M. suipneumoniae Str. 11; [10]): 5 µg/mL (≈ 10.9 µM) | MIC [1, 11]: 5 µg/mL (≈ 10.9 µM) | MIC (M. suipneumoniae UCD 1; Mesomycoplasma hyopneumoniae, UCD1, 144 h, M. suipneumoniae UCD 1, 6 days, 37° C., read-out: MIC): 10 µg/mL (≈ 21.9 µM) | MIC (M. bovis NCTC 10131; NCTC10131, 144 h): 0.05 µg/mL (≈ 0.109 µM) | MIC ([2]; 144 h): 0.25 µg/mL (≈ 0.546 µM) | MIC (M. gallisepticum S6; [13]): > 10 µg/mL | MIC (E. coli NCTC 10418 [3]; [14]): > 64 µg/mL | MIC [4, 15]: > 64 µg/mL | MIC [5, 16]: 2 µg/mL (≈ 4.37 µM) | MIC ([6]; read-out: MIC): > 64 µg/mL | MIC (Strep. agalactiae 2788-B; [17]): 16 µg/mL (≈ 35 µM) | MIC (E. coli NCTC 10418 [7]; [18]): > 80 µg/mL | MIC (S. dublin S7; Salmonella enterica, S7, 18 h): > 80 µg/mL | MIC (Bord. bronchiseptica B09; [19]): 80 µg/mL (≈ 175 µM) | MIC (Past. multocida PA1; [20]): 20 µg/mL (≈ 43.7 µM) | MIC [8, 21]: > 80 µg/mL | MIC ([9]; CY1, 18 h): > 80 µg/mL | MIC (Staph. aureus Oxford; Staphylococcus aureus, 18 h): 10 µg/mL (≈ 21.9 µM) | MIC (Strep. dysgalactiae SPD1; [22]): 2.5 µg/mL (≈ 5.46 µM) | MIC (Strep. agalactiae SPA1; [23]): 20 µg/mL (≈ 43.7 µM) | MIC (B. subtilis ATCC 6633; [24]): 2.5 µg/mL (≈ 5.46 µM)

CC(=Cc1cnc(-c2ccccc2)o1)CC1OCC(CC2OC2C(C)C(C)O)C(O)C1O (stereo not shown) [Example 35, 5-(1-Normon-2-yl)-2-phenyloxazole A]
MIC (M. suipneumoniae Str. 11; M. suipneumoniae Str. 11, 6 days, 37° C.): > 10 µg/mL | MIC (M. suipneumoniae UCD 1; M. suipneumoniae UCD 1, 6 days, 37° C.): > 10 µg/mL | MIC (M. bovis NCTC 10131; M. bovis NCTC 10131, 6 days, 37° C.): 2.5 µg/mL (≈ 5.64 µM) | MIC ([2]; M. bovigenitalium ATCC 14173, 6 days, 37° C.): 5.0 µg/mL (≈ 11.3 µM) | MIC (M. gallisepticum S6; M. gallisepticum S6, 6 days, 37° C.): > 10 µg/mL | MIC (E. coli NCTC 10418 [3]): > 128 µg/mL | MIC [4]: > 128 µg/mL | MIC ([5]; Haemophilus influenzae Wy21, 5% chocolated horse blood agar, 18 hours): 128 µg/mL (≈ 289 µM) | MIC [6]: > 128 µg/mL | MIC (Strep. agalactiae 2788-B): > 128 µg/mL | MIC (E. coli NCTC 10418 [7]; E. coli NCTC 10418, Diagnostic Sensitivity Test Agar, 18 hours, 37° C.): > 80 µg/mL | MIC (S. dublin S7; S. dublin S7, Diagnostic Sensitivity Test Agar, 18 hours): > 80 µg/mL | MIC (Bord. bronchiseptica B09; Bord. bronchiseptica B09, Diagnostic Sensitivity Test Agar, 18 hours): > 80 µg/mL | MIC (Past. multocida PA1; Past. multocida PA1, Diagnostic Sensitivity Test Agar, 18 hours): 80 µg/mL (≈ 180 µM) | MIC (Past. haemolytica PA5; Past. haemolytica PA5, Diagnostic Sensitivity Test Agar, 18 hours): > 80 µg/mL | MIC ([8]; Erysipelothrix rhusiopathiae NCTC 8163, Diagnostic Sensitivity Test Agar, 18 hours): > 80 µg/mL | MIC ([9]; Corynebacterium pyogenes CY1, Diagnostic Sensitivity Test Agar, 18 hours): > 80 µg/mL | MIC (Staph. aureus Oxford; Staph. aureus Oxford, Diagnostic Sensitivity Test Agar, 18 hours): > 80 µg/mL | MIC (Strep. dysgalactiae SPD1; Strep. dysgalactiae SPD1, Diagnostic Sensitivity Test Agar, 18 hours): > 80 µg/mL | MIC (Strep. agalactiae SPA1; Strep. agalactiae SPA1, Diagnostic Sensitivity Test Agar, 18 hours): > 80 µg/mL | MIC (B. subtilis ATCC 6633; B. subtilis ATCC 6633, Diagnostic Sensitivity Test Agar, 18 hours): > 80 µg/mL
